Source: article PMC6072469, “Small molecule piperazinyl-benzimidazole antagonists of the gonadotropin-releasing hormone (GnRH) receptor” (MedChemComm, 2017)
≈ marks a conversion by molar mass, not a printed value. Like-named read-outs stand apart in the source and are kept apart here. One block for each molecule: values may come before it.

What was measured:
[1] = Solubility (method not given); assay type: physicochemical
hGnRH receptors = target: T1, hGnRH receptors (Homo sapiens, UniProt P30968); test: Functional cell assay (Ca2+ FLIPR): inhibition of receptor activation by LHRH/GnRH; assay type: cell-based; conditions: for potency to inhibit GnRH receptor (in words): compared with 1 / desired range
T1 construct: host or cells: HEK293T (division-arrested, stably expressing)
T1 sequence (P30968 1-328): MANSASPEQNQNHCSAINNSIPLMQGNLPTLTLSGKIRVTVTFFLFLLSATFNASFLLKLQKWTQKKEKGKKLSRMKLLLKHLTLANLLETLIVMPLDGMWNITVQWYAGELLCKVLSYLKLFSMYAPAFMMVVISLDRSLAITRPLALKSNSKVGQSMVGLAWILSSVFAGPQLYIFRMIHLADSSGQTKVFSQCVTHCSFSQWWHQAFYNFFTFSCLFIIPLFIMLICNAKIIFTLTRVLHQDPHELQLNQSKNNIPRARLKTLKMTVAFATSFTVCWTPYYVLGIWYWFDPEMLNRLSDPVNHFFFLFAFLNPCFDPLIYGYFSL
Protocol: Compounds insoluble in DMSO at 10 mM were dropped from testing. […] The lead compound WAY207024 (1) was included as a reference in the cell assay. All IC50 values obtained for each test compound in the concentration dependent screening were converted into Ki values using the equation of Cheng and Prusoff.[15] […]
DMEM (Corning Hanks’ Balanced PBS +/- IBMX 1 mM IBMX in Cellgro 10- 013- Salt Solution (TBD by PBS
CV): 90%; (HBSS) titration)
_FBS (Seradigm with 20 mM
Plating cell density for Plating cell density for Forskolin concentration 384-well microplate 384-well microplate for cAMP assay (Gαi-for Ca++ assay for cAMP assay coupled) immediately immediately 5-15 μM without IBMX;
Assay preparations, pretreatment of cells and seeding on 384 well plates.
Thawing Medium was prepared by mixing commercially available stock solutions of DMEM (Corning Cellgro 10-013-CV) and Fetal Bovine Serum, FBS (Seradigm Catalog #1500-500) in a volume ratio of 9:1.
Vials containing 4 x 10^6 frozen cells were transferred from liquid nitrogen to a 37 °C water bath and gently warmed while submerged under water. Immediately after the frozen cells are thawed, the cryovial was removed from the water bath, dried and cleaned with 70% alcohol. Using a 2 mL serological pipette, the cell suspension was transferred to a 15-mL conical centrifuge tube containing 5 mL DMEM pre-warmed to r.t.. The mixture was triturated gently with the same 2 mL serological pipette without causing any air bubbles.
The 15-mL tube was spun at 200x g for 5 minutes at r.t. the supernatant was removed and cells were resuspended in 11 mL of DMEM complete to obtain a cell concentration of 360000 cells/ml. Based on previous titration of cell densitites, 9000 cells were seeded per well and the plate was incubated over night at 37 °C/CO 2.
1. Loading buffer from MD is prepared. Dissolve 1 vial of dye in 10 mL buffer from kit.
2. HBBS/Hepes (1x with Ca/Mg)/20 mM Hepes, pH 7.4 with 0.1 % BSA to be used for dilution of the agonist
3. 60 mL HBBS/20 mM Hepes to be added to test compounds
The day of the assay the seeding medium was carefully decanted from each well by tilting the plate. 25 µl loading buffer containing the Ca 2+ sensing dye was added to each well. Subsequently, 20 µL of HBBS/Hepes were added to each well containing dye. Plates were incubated at 37 °C for 45 min, after which 5 µL antagonist solution (diluted in HBBS/HEPES) were dispensed into each well using a Hamilton 384 well head followed by incubation at r.t. for 15 min. After 15 min agonist was added on the FLIPR platform and the fluorescence signal […]
First sequence: 2 s, 30 sample. (Baseline)
Second sequence: 2 s, 120 sample. (Agonist stimulation)
12.5 µL addiiton, after sample 30.
Addition speed: 20 µl/sec
Compound concentration: 5x, add 12.5 µl of each
One minute baseline stabilisation, 240 s measurement
Compound plate preparation:
Agonist stock solution: Luteinizing hormone releasing hormone, 10 mM in water […]
Dissolve 5 mg in 423 µL of water, store at -80 °C until use.
Prepare a full plate with only agonist at experimental EC50 dose as reported before on FLIPR platform:
Dilute 3,225 µL in 25 mL HBSS/Hepes buffer with 0.1 % BSA
Test compounds (antagonists)
Sample to be analysed (>95% pure by HPLC/microanalysis, fully characterised).
DMSO for cell culture (reference free, anhydrous) stored in desiccator 1: Dimethyl sulfoxide (Hybri-Max™, sterile-filtered, BioReagent, suitable for hybridoma, ≥99.7%, D2650-5X10ML, Sigma-Aldrich) […]
A - Solubility of the sample is assessed with an aliquot of the material and DMSO prior to sample preparation.
B - 10 ±1 mg of each neat, homogeneous sample are weighed into a labelled 1.5 mL flip-top Eppendorff tube.

[2] = Thermodynamic solubility assay (Analiza, LC-QTOFMS); assay type: physicochemical; conditions: for solubility thermodynamic at 24 h: 24 hour incubation, ambient temperature
Protocol: Thermodynamic solubility assay
Analysis performed at Analiza, Cleveland Ohio.
Apparatus Agilent G6538 QTOF Mass Spectrometer equipped with dual Electrospray Ionization with Mass Hunter data software package Agilent 1290 Infinity II UHPLC system equipped with photodiode array detector, binary pump, vacuum degasser, column heater, thermostat and validated data acquisition software Standard Laboratory equipment (e.g. Pyrex volumetric flasks, graduated cylinders and bottles, sonicator, vortexer, digital timer, calibrated analytical balance, pipettes and tips
Test Compounds: were supplied as dry powder in vials
Consumables: Sodium Chloride (Cat # 21618) was purchased from Affymetrix, Cleveland, OH. HPLC grade water (Cat # EM-WX0004-1), Omnisolv Acetonitrile and (Cat #EM-AX0142-1, DimethylSulfoxide (Cat #D1258) was purchased from Spectrum Chemical, New Brunswick, NJ. DeepWell 96 well plates (Cat #AWLS-219002) were purchased from Arctic White, Bethlehem, PA. Whatman Mini UniPrep syringe-less filter device with […] PTFE filter membrane (Cat #US203NPUORG), Formic Acid (Cat# 0961-100mL) and Round bottom 96 well plates (Cat# 29444-104) were purchased from VWR, Radnor, PA. Benzthiazide (Cat # B7149) and Alprenolol (Cat# A0360000) were purchased from Sigma-Aldrich, St. Louis, MO. Hydrochloric acid,36%, (Cat # 124635000) and Phosphate Buffered Saline, 10X PBS solution, (Cat # BP399-500) were purchased from Fisher Scientific, Fair Lawn, New Jersey.
Preparation of Calibration Standards for LC-MS Analysis:
Separate test compound was weighed into 4mL vials for calibration curves. Samples were received as dry powders in vials containing approximately 5mg of material each. Upon arrival at Analiza the vials were intact.
DimethylSulfoxide (DMSO) was added to each sample such that the final concentration was 10mM and vortexed for 5-10 seconds. After vortexing, all compounds appeared to be fully dissolved. Each test compound was transferred to a polypropylene 96 well plate for robotic preparation of calibration standards.
Each test article DMSO stock solution was serially diluted using a Hamilton STARlet liquid handler with 50-50 LC-MS water 0.1% Formic Acid and LC-MS acetonitrile 0.1% Formic Acid to final concentrations as described below in Table 1 and plated in a polypropylene 96 well plate sealed with foil seal for analysis. A standard calibration curve was prepared for each compound from these dilutions.
Ambient Temperature Test compounds were received as dry powders in vials containing approximately 5mg of material each. Upon arrival at Analiza the vials were intact. Each sample was weighed into a Whatman vial and the appropriate Buffer (450uL) was added to each vial for a dose concentration of approximately 2mg/mL .
Following 24 hour incubation on a rotary shaker (200 RPM) at ambient temperature (22.6-25.0°C), the samples were filtered in a 96 well polypropylene plate. The plate was sealed with a pierceable heat seal and analyzed by […]
Quantitation: 1.) LC-QTOFMS: a. Each sample was weighed into a whatman vial and the appropriate buffer (450uL) was added to each vial for a dose concentration of approximately 2mg/mL incubated for 24 hours and filtered b. The filtrates were assayed undiluted or diluted 100X, 1000X, and/or 10000x with a 50:50 solution of mobile phase and eluted using a fast generic gradient program. c. […] The filtrates were quantified with respect to this calibration curve. […]

human GnRH receptor = target: human GnRH receptor; design: method as in PMID 19271735; conditions: concentration to inhibit GnRH binding to the receptor by 50% ref 11; read-out: IC50 (hGnRH); cited from earlier work
rat GnRH receptor = target: rat GnRH receptor; design: method as in PMID 19271735; conditions: concentration to inhibit GnRH binding to the receptor by 50% ref 11; read-out: IC50 (rGnRH); cited from earlier work
[3] = calculated from mean IC50 using the Cheng–Prusoff equation, read-out: Ki (hGnRH)
[4] = inhibition of LHRH/GnRH stimulation in cells stably expressing hGnRH receptors, IC50 geometric mean of two experiments, read-out: pIC50 (hGnRH) (converted)
[5] = pH 1.2 (simulated gastric fluid)
[6] = pH 7.4 (phosphate buffered saline)

- solubility [1]: > 0.1 µM
SMILES: C#CCN1CCN(c2cccc3[nH]c(-c4ccc(C(C)(C)C)cc4)nc23)CC1 [7b]

- Ki (hGnRH receptors; [3]): > 1 µM
- IC50 (hGnRH receptors; [4]): > 10 µM
SMILES: CC(=O)NC1C(O)C(O)C(CO)OC1n1cc(CN2CCN(c3cccc4[nH]c(-c5ccc(C(C)(C)C)cc5)nc34)CC2)nn1 (stereo not shown) [8f]

- potency, fold lower than 1 (hGnRH receptors; relative to 1): 21 fold
- solubility [1]: > 0.1 µM
SMILES: CC(C)(C)c1ccc(-c2nc3c(N4CCN(CCF)CC4)cccc3[nH]2)cc1 [7a]

- potency to inhibit GnRH receptor (in words) (hGnRH receptors): did not give the desired inhibition
SMILES: CC(C)(C)c1ccc(-c2nc3c(N4CCN(Cc5cn(-c6ccc(F)cc6)nn5)CC4)cccc3[nH]2)cc1 [8i]

- potency to inhibit GnRH receptor (in words) (hGnRH receptors): did not give the desired inhibition
SMILES: CC(C)(C)c1ccc(-c2nc3c(N4CCN(Cc5cn(-c6nc7ccccc7[nH]6)nn5)CC4)cccc3[nH]2)cc1 [8h]

- Ki (hGnRH receptors; [3]): 0.038 µM
- IC50 (hGnRH receptors; [4]): 2 µM
SMILES: Cc1cn(C2CC(n3cc(CN4CCN(c5cccc6[nH]c(-c7ccc(C(C)(C)C)cc7)nc56)CC4)nn3)C(CO)O2)c(=O)[nH]c1=O (stereo not shown) [8g]
- solubility thermodynamic at 24 h [2, 5]: 1.2 mg/mL (≈ 1880 µM)
- solubility thermodynamic at 24 h [2, 6]: < 0.001 mg/mL

- potency to inhibit GnRH receptor (in words) (hGnRH receptors): equally potent as 1
SMILES: CC(C)(C)c1ccc(-c2nc3c(N4CCN(Cc5cn(CCF)nn5)CC4)cccc3[nH]2)cc1 [8a]
- solubility thermodynamic at 24 h [2, 5]: 2.1 mg/mL (≈ 4550 µM)
- solubility thermodynamic at 24 h [2, 6]: 0.003 mg/mL (≈ 6.5 µM)
- solubility, times more soluble than 1 ([2]; relative to 1): 1.5 times

- IC50 (hGnRH receptors): > 10 µM
- Ki (hGnRH receptors): > 1 µM
SMILES: CSc1nc(NC(C)C)nc(-n2cc(CN3CCN(c4cccc5[nH]c(-c6ccc(C(C)(C)C)cc6)nc45)CC3)nn2)n1 [8j]

SMILES: CC(C)(C)c1ccc(-c2nc3c(N4CCN(Cc5cccc6nccnc56)CC4)cccc3[nH]2)cc1 [compound 1]
- IC50 (human GnRH receptor): 0.012 µM
- IC50 (rat GnRH receptor): 0.072 µM
